The nature of series [1]: pKa of photostabilizer (half neutralization potential titration). It is filed as physicochemical. As to conditions: non-aqueous titration, HNP calibration curve. Here is the method: (Method of Measuring pKa of Photostabilizer)
A solution of 0.1 N perchloric acid/dioxane and acetonitrile:chloroform=1:1 was added dropwise to an organic reference substance having known pKa value in an aqueous system to determine the half neutralization potential (HNP) by titration in a non-aqueous system. A plot of the HNP calibration curve for pKa was prepared. Then, titration was performed for the photostabilizer in the same manner to determine a corresponding pKa from the plot of calibration curve.

The nature of series [2]: pKa of ultraviolet absorber upon light absorption. It is filed as physicochemical. As to conditions: when irradiated with light, absorption spectrum; for pKa: acetonitrile solution titrated with 70% perchloric acid. The procedure: (Method of Measuring pKa of Ultraviolet Absorber Upon Light Absorption)
The ultraviolet absorber was dissolved in acetonitrile so that the absorbance at the maximum absorption wavelength became 1, and bubbling with nitrogen was performed for 15 minutes. Then, 70% perchloric acid was dropped into the solution to change the pH of the solution. At that time, the absorption spectrum of the solution was measured, and, from the absorbance at λmax, the ultraviolet absorber at each pH and the ultraviolet absorber in which hydrogen ion is added to the nitrogen of the benzotriazole skeleton or triazine skeleton of the ultraviolet absorber were obtained. From the point where these values become equal, pKa of the ultraviolet absorber upon light absorption was determined. Measurement of the absorption spectrum was performed by using a U-4000 spectrophotometer manufactured by Hitachi High-Technologies Corporation.

The text below walks through data of patent US11021598B2, “Resin molded product, laminate, and decorative sheet” (TOPPAN PRINTING CO., LTD., priority 2017, dated 2021).

On to `CCCCCCCCON1C(C)(C)CC(OC(=O)CCCCCCCCC(=O)OC2CC(C)(C)N(OCCCCCCCC)C(C)(C)C2)CC1(C)C` [Tinuvin 123], for which the “Photostabilizer pKa” value in series [1] was 4.7; in series [1] (listed as Tinuvin123), 4.5.
For the molecule `Cc1cc(-n2nc3ccc(Cl)cc3n2)c(O)c(C(C)(C)C)c1` [Tinuvin 326, 2-(5-chloro-2-benzotriazolyl)-6-tert-butyl-p-cresol], the pKa in series [2] is -4.9.
In the case of `CCCCN(c1nc(NCCO)nc(N(CCCC)C2CC(C)(C)N(OC3CCCCC3)C(C)(C)C2)n1)C1CC(C)(C)N(OC2CCCCC2)C(C)(C)C1` [Tinuvin 152], the “Photostabilizer pKa” value in series [1] came to 7.0.
Turning to `CC(C)(C)CC(C)(C)c1ccc(O)c(-n2nc3ccccc3n2)c1` [Tinuvin 329], the “Ultraviolet absorber pKa” value in series [2] (acetonitrile, 70% perchloric acid) was −4.9.
`CCCCCCCCCCCON1C(C)(C)CC(OC(=O)OC2CC(C)(C)N(OCCCCCCCCCCC)C(C)(C)C2)CC1(C)C` [LA-81]: the “Photostabilizer pKa” value in series [1] was determined as 5.5.
`CCCCCCCCCCCCCCN1C(=O)NC2(CC(C)(C)N(C(C)=O)C(C)(C)C2)C1=O` [8-acetyl-3-tetradecyl-7,7,9,9-tetramethyl-1,3,8-triazaspiro[4.5]decane-2,4-dione]: the pKa in series [1] turned out to be 3.5.
Regarding `CCCCC(Cc1cc(C(C)(C)C)c(O)c(C(C)(C)C)c1)(C(=O)OC1CC(C)(C)N(C)C(C)(C)C1)C(=O)OC1CC(C)(C)N(C)C(C)(C)C1` [Tinuvin PA144], the “Photostabilizer pKa” value in series [1] was determined as 9.5.
In turn, `CCCCCCCCOc1ccc(-c2nc(-c3ccc(C)cc3C)nc(-c3ccc(C)cc3C)n2)c(O)c1` [CYASORB UV-1164, 2,4-bis(2,4-dimethylphenyl)-6-(2-hydroxy-4-n-octyloxyphenyl)-1,3,5-triazine] yielded a pKa in series [2] of -5.
On to `CC1(C)CC(OC(=O)CCCCCCCCC(=O)OC2CC(C)(C)NC(C)(C)C2)CC(C)(C)N1` [Chimassorb 770], for which the “Photostabilizer pKa” value in series [1] is listed as 9.0.
